Reference: patent US11390580B2, “Anti-fungals targeting the synthesis of fungal shingolipids” (THE RESEARCH FOUNDATION FOR THE STATE UNIVERSITY OF NEW YORK, priority 2014, dated 2022)
Converted amounts (≈) assume the structure as drawn. “Also recorded” adds a separate entry of the source. Like-named read-outs stand apart in the source and are kept apart here.

Key:
[1] = test system: Candida parapsilosis; test: In vitro susceptibility testing (MIC); type: cell-based; settings: for BHBM 24 Hr 50% / BHBM 48 Hr 50%: MIC, FTL strains
[2] = test system: L2 cell line; test: In vitro toxicity; type: cell-based
[3] = target: Gcs1 (Cryptococcus neoformans, UniProt J9W453); test: In vitro Gcs1 activity in cell lysate
[4] = test system: C. neoformans H99; test: Animal studies for cryptococcosis (intranasal infection); type: in vivo, mice
[5] = test system: S. cerevisiae heterozygote library mutants
[6] = test system: Rhizopus oryzae; test: In vitro susceptibility testing (MIC); type: cell-based
[7] = test system: C. neoformans sphingolipids; test: Sphingolipid levels by TLC and lipid mass spectrometry; type: cell-based, Cryptococcus neoformans
Method: Labeling fungal cells. […] Samples without drug were included as control. Before lipid extraction, lipid internal standards (C17 ceramide and C17 sphingosine) were added. Lipids were then extracted following the methods of […] and Bligh and Dyer and one fourth of the sample was aliquoted for determination of the inorganic phosphate. The remainder of the sample was subjected to base hydrolysis and then analyzed using LC/MS. Results were normalized with the inorganic phosphate levels.

[8] = In vitro toxicity, MTT assay; settings: mouse, J774.16 macrophage cells
[9] = test system: Candida krusei; test: In vitro susceptibility testing (MIC); type: cell-based; settings: for BHBM 24 Hr 50% / BHBM 48 Hr 50%: MIC, QC strain
[10] = test system: synthesis of GlcCer in C. albicans cells; test: GlcCer synthesis in C. albicans; type: cell-based, Candida albicans
[11] = test system: intracellular C. neoformans; test: Intracellular effect in J774.16 macrophages; type: cell-based, Cryptococcus neoformans; settings: dose-dependent, particularly after 12 and 24 hours
Method: After 2 hours of incubation, about 60-80% of macrophages have at least one C. neoformans cell internalized. At this time, wells were washed to remove extracellular fungal cells and fresh DMEM medium without serum and without mAb 18B7 but containing different concentrations of BHBM was added. […] At selected time points, 0, 6, 12 and 24 hours, extracellular cells were collected by washing and plated onto YPD for CFU counting of extracellular cells. Then, macrophages containing C. neofromans were lysed, collected and serial dilutions were plated onto YPD for CFU counting of intracellular fungal cells.

[12] = test system: Golgi morphology of C. albicans; test: C6-NBD-ceramide staining of the Golgi; type: cell-based, Candida albicans; settings: 4 μg/ml
Method: (§1) The Golgi apparatus of C. neoformans and C. albicans was stained with C6-NBD-ceramide using a previously described protocol (Kmetzsch, L. et al. 2011), based on the property that this fluorescent lipid accumulates at the Golgi of either living or fixed cells (Pagano R. E. et al. 1989). […] Cell suspensions were then washed with the same buffer and incubated with C6-NBD-ceramide ([…]) for 16 h at 4° C. The cells were then incubated with bovine serum albumin (BSA, 1%) at 4° C. for 1 h to remove the excess of C6-NBD-ceramide. […] Louis, USA) for 30 min at room temperature. The cells were washed again with PBS and stained cell suspensions were mounted over glass slides as described above and analyzed under an Axioplan 2 (Zeiss, Germany).

[13] = test system: Golgi morphology of C. neoformans; test: C6-NBD-ceramide staining of the Golgi; type: cell-based, Cryptococcus neoformans; settings: 4 μg/ml
Method: as §1

[14] = test system: C. neoformans; test: Resistance assay, daily passages in sub-MIC drug; settings: 15 days of passages below the MIC
[15] = test system: Pneumocystis jiroveci; test: In vitro testing by ATP content (luciferin-luciferase); settings: for inhibition at 0.1 µg/mL / inhibition at 1 µg/mL / inhibition at 10 µg/mL / inhibition at 100 µg/mL: read-out: percentage inhibition of ATP
[16] = test system: C. neoformans (H99); test: Transmission electron microscopy of treated cells; settings: 4 μg/mL, 6 hours
[17] = test system: C. neoformans; test: Synergistic assay (fractional inhibitory index, FIC)
[18] = test system: A549 cell line; test: In vitro toxicity; type: cell-based
[19] = test system: C. neoformans; test: In vitro killing assay (time-kill, CFU); type: cell-based, Cryptococcus neoformans
Method: At the illustrated time points, aliquots were taken and diluted and 100 μL was plated onto yeast peptone dextrose (YPD) plates. YPD plates were incubated in a 30° C. incubator and, after 72 hours, colony forming units (CFU) were counted and recorded.

[20] = TLC, confirmed by mass spectrometry

Sequence of Gcs1 (J9W453 whole entry): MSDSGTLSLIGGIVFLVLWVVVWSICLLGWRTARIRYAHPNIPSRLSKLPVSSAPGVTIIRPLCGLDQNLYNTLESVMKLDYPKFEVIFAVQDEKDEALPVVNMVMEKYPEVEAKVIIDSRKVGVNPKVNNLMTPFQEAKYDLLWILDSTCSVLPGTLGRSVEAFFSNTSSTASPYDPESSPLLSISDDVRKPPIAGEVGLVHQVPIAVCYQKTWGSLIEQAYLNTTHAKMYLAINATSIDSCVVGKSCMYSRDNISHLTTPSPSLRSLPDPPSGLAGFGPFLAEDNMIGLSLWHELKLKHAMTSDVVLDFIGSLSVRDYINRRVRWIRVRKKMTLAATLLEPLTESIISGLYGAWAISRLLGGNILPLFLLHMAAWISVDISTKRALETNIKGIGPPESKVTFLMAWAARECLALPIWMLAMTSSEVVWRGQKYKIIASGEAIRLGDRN

Cc1ccccc1C(=O)NN=Cc1ccc(O)c(Br)c1 [BHBM, N′-(3-bromo-4-hydroxybenzylidene)-2-methylbenzohydrazide]
in vitro activity [1]: not active
MIC range ([1]; 3 MDP Lab strains): >32 µg/mL
BHBM 24 Hr 50% [1]: >16
BHBM 48 Hr 50% [1]: >16
BHBM 24 Hr 50% ([1]; first listing r7-r78): >16
BHBM 48 Hr 50% ([1]; first listing r7-r78): >16
MIC range ([1]; QC, Fungus Testing Lab): >16 µg/mL
toxicity [2]: slight to moderate toxicity
in vitro activity of Gcs1 [3]: does not inhibit
mice surviving infection ([4]; 1.2 mg/Kg/day intraperitoneally, up to 60 days): 90%
fungal burden in brain ([4]; 1.2 mg/Kg/day, day 60): No C. neoformans cells were found in brains
fungal burden in lung ([4]; 1.2 mg/Kg/day, day 60, compared to infected untreated mice): decrease the fungal burden in the lung
brain histology ([4]; day 60): no fungal cells and normal structure
lung histology ([4]; day 60): granulomatous response limited in few areas of the lung
Fold increased sensitivity to BHBM ([5]; ACT1 heterozygote mutant): 2.0 Fold
Fold increased sensitivity to BHBM ([5]; GLC7 heterozygote mutant): 2.1 Fold
Fold increased sensitivity to BHBM ([5]; GOS1 heterozygote mutant): 2.1 Fold
Fold increased sensitivity to BHBM ([5]; MTW1 heterozygote mutant): 2.5 Fold
Fold increased sensitivity to BHBM ([5]; PEP7 heterozygote mutant): 2.2 Fold
Fold increased sensitivity to BHBM ([5]; REG1 heterozygote mutant): 2.5 Fold
Fold increased sensitivity to BHBM ([5]; RET2 heterozygote mutant): 3.8 Fold
Fold increased sensitivity to BHBM ([5]; RET3 heterozygote mutant): 2.0 Fold
times more sensitive to BHBM ([5]; Rvs167): 1.7 time
Fold increased sensitivity to BHBM ([5]; SAP4 heterozygote mutant): 2.1 Fold
Fold increased sensitivity to BHBM ([5]; SEC26 heterozygote mutant): 2. Fold
Fold increased sensitivity to BHBM ([5]; SEC31 heterozygote mutant): 2.1 Fold
Fold increased sensitivity to BHBM ([5]; SNF8 heterozygote mutant): 2.1 Fold
Fold increased sensitivity to BHBM ([5]; SPT4 heterozygote mutant): 2.3 Fold
Fold increased sensitivity to BHBM ([5]; UBP3 heterozygote mutant): 3.0 Fold
Fold increased sensitivity to BHBM ([5]; VPS3 heterozygote mutant): 2.0 Fold
Fold increased sensitivity to BHBM ([5]; YML018C heterozygote mutant): 2.1 Fold
in vitro activity [6]: good in vitro activity
MIC range ([6]; 3 Fungus Testing Lab strains): 2 µg/mL (≈ 6 µM)
sphingosine-1-phosphate level ([7]; TLC): increased
GlcCer level [7, 20]: decreased
dihydroceramide level [7, 20]: increased
sphingosine level [7, 20]: increased; also recorded: accumulation of sphingosines
level of IPC ([7]; data not shown): does not decrease the level of IPC
EC50 at 48 h [8]: 50 µg/mL (≈ 150 µM)
MIC range ([9]; 1 MDP Lab strain): 32 µg/mL (≈ 96 µM)
MIC range ([9]; ATCC 6258, MDP Lab): 16 µg/mL (≈ 48 µM)
BHBM 24 Hr 50% [9]: 4
BHBM 48 Hr 50% [9]: 8
BHBM 24 Hr 50% ([9]; first listing r7-r78): 4
BHBM 48 Hr 50% ([9]; first listing r7-r78): 8
MIC ([9]; Pichia kudriavzevii, read-out: MIC (moderately active)): 8 to 16 µg/mL (≈ 24 to 48 µM)
MIC range ([9]; QC, Fungus Testing Lab): 8 µg/mL (≈ 24 µM)
synthesis of GlcCer [10]: inhibited in a dose dependent manner
intracellular replication of C. neoformans [11]: significantly decrease the intracellular replication
Golgi morphology [12]: changes in the Golgi morphology were dramatic
Golgi morphology [13]: significant alterations in the Golgi morphology
development of resistance [14]: do not develop resistance
IC50 ([15]; 24 h, read-out: IC50, P. jiroveci): 0.912 µg/mL (≈ 2.74 µM)
inhibition at 0.1 µg/mL ([15]; 24 h): 16.1%
inhibition at 1 µg/mL ([15]; 24 h): 51.5%
inhibition at 10 µg/mL ([15]; 24 h): 97%
inhibition at 100 µg/mL ([15]; 24 h): 98.9%
IC50 ([15]; 48 h, read-out: IC50, P. jiroveci): 0.159 µg/mL (≈ 0.477 µM)
inhibition at 0.1 µg/mL ([15]; 48 h): 26.2%
inhibition at 1 µg/mL ([15]; 48 h): 92.6%
inhibition at 10 µg/mL ([15]; 48 h): 97.8%
inhibition at 100 µg/mL ([15]; 48 h): 98.6%
IC50 ([15]; 72 h, read-out: IC50, P. jiroveci): 0.074 µg/mL (≈ 0.222 µM)
inhibition at 0.1 µg/mL ([15]; 72 h): 39.1%
inhibition at 1 µg/mL ([15]; 72 h): 87.8%
inhibition at 10 µg/mL ([15]; 72 h): 94.8%
inhibition at 100 µg/mL ([15]; 72 h): 98.1%
IC50 ([15]; 96 h, read-out: IC50, P. jiroveci): 0.072 µg/mL (≈ 0.216 µM)
inhibition at 0.1 µg/mL ([15]; 96 h): 46.2%
inhibition at 1 µg/mL ([15]; 96 h): 77%
inhibition at 10 µg/mL ([15]; 96 h): 90.1%
inhibition at 100 µg/mL ([15]; 96 h): 98.9%
IC50 ([15]; read-out: activity class by IC50, P. jiroveci): 0.011 to 0.099 µg/mL (≈ 0.033 to 0.297 µM)
number of vacuoles per μm^2 of cell surface area [16]: 0.84±0.58
FIC index ([17]; combined with Amphotericin B): 0.75
FIC index ([17]; combined with Fluconazole): 0.38
interaction ([17]; combined with Tunicamycin): synergistic
FIC index ([17]; combined with caspofungin): 1
toxicity [18]: slight to moderate toxicity
incubation required to kill about 50% of the cells [19]: at least 72 hours
type of killing ([19]; time-kill assay): concentration-dependent killing
